Test results as given in patent US20250355005A1, “System and Method for Drug-Related Data Collection and Analysis” (FloBio LLC, priority 2023, published 2025).

System: blood sample (fibrin and platelet accumulation at collagen/tissue factor reaction zone)
Experiment: microfluidic flow assay of a blood sample treated with different doses of DOAC, fibrin and platelet fluorescence signal at two temperatures
Type: cell-based, human
Conditions: increasing Rivaroxaban dose, in relation to the HBS control; 37° C. and 21° C.
Description: Fibrin signal decreases as Rivaroxaban (R) dose is increased, in relation to the HBS control, as expected. As temperature increases, fibrin reactions initiate carlier, fibrin and platelet maximum rate of change increases (steeper slope), and fibrin and platelet signals are increased overall at the same point in time. The DOAC drug dose effect seen at higher temperatures follows similar dose behavior seen at lower temperatures. As illustrated in FIGS. 49A-49B, about a two-fold platelet signal increase at 400 s is seen, a substantial increase in maximum rate of change of fluorescence is also seen. […]
The device 100 can allow for up to eight unique conditions to be tested simultaneously. […] Estimated drug level can be determined through comparison to a fully attenuated sample and a fully reversed sample, in comparison to an IC50 drug response curve, linear regression, […] analysis or other statistical methodology. […]
The system can rely on direct fluorescence signals for analysis of the results at the collagen/tissue factor 112. Fresh whole blood (used within minutes of venous draw), AF594 fibrinogen label (fibrinogen from human plasma, Alexa Fluor™ 594 conjugate) and platelet MCA2588A488 label (mouse anti-human CD61, Alexa Fluor™ 488 conjugate) can be added to the device 100 and the direct fluorescence signals can be analyzed. […]

O=C(NC[C@H]1CN(c2ccc(N3CCOCC3=O)cc2)C(=O)O1)c1ccc(Cl)s1 [Rivaroxaban]
Fibrin signal: decreases
